Test results from publication PMC7910394, “Design of PSMA ligands with modifications at the inhibitor part: an approach to reduce the salivary gland uptake of radiolabeled PSMA inhibitors?” (EJNMMI Radiopharmacy and Chemistry, 2021).
Where two headings read alike, the source gives them in different places.

System: LNCaP tumor xenograft-bearing CB17-SCID mice
Format: in vivo, mouse
Description: All animal experiments were conducted in accordance with general animal welfare regulations in Germany (German animal protection act, as amended on 18.05.2018, Art. 141 G v. 29.3.2017 I 626, approval no. 55.2–1-54-2532-71-13) and the institutional guidelines for the care and use of animals. To establish tumor xenografts, LNCaP cells (approx. 10^7 cells) were suspended in 200 μL of a 1/1 mixture (v/v) of DMEM F-12 and Matrigel (BD Biosciences, Heidelberg, Germany) and inoculated subcutaneously onto the right shoulder of 6–8 weeks old CB17-SCID mice (Charles River Laboratories, Sulzfeld, Germany). Mice were used for experiments when tumor size reached 5–10 mm in diameter (3–6 weeks after inoculation).
(§1) Approximately 2–10 MBq (0.20 nmol) of the ^177Lu-labeled PSMA inhibitors were injected into the tail vein of LNCaP tumor xenograft-bearing male CB17-SCID mice (n = 3 to 5). They were sacrificed by CO2 asphyxiation and cervical dislocation either 1 h or 24 h post injection (p.i.) (n = 3 for [^177Lu]Lu-5, -6 & -7 (proinhibitor compounds I-III), n = 4 for [^177Lu]Lu-10 (alkyne), n = 5 for [^177Lu]Lu-3 (carbamate I) and n = 5 for [^177Lu]Lu-11 (tetrazole)). Selected organs were removed, weighed and organ activities measured in a γ-counter.
as §1, with “2 - 10” for “2–10”, “(alkyne) and” for “(alkyne),”

Compound: CC(C)(C)[Si](F)(c1ccc(C(=O)NC[C@@H](NC(=O)CN2CCN(CC(=O)[O-])CCN(CC(=O)[O-])CCN(CC(=O)[O-])CC2)C(=O)N[C@H](CCCCNC(=O)CCC(=O)NCCC[C@@H](NC(=O)CC[C@H](NC(=O)N[C@@H](CCc2nnn[nH]2)C(=O)O)C(=O)O)C(=O)O)C(=O)O)cc1)C(C)(C)C.[Lu+3] [^natLu/[^177Lu]Lu-11]
- Biodistribution Adrenals (1 h p.i.): 0.61 ± 0.42 % ID/g
- Biodistribution Blood (1 h p.i.): 1.09 ± 0.30 % ID/g
- Biodistribution Bone (1 h p.i.): 0.47 ± 0.44 % ID/g
- Biodistribution Heart (1 h p.i.): 0.41 ± 0.04 % ID/g
- Biodistribution Intestine (1 h p.i.): 0.67 ± 0.21 % ID/g
- Biodistribution Kidneys (1 h p.i.): 33.2 ± 3.8 % ID/g
- Biodistribution Liver (1 h p.i.): 0.74 ± 0.17 % ID/g
- Biodistribution Lung (1 h p.i.): 1.23 ± 0.27 % ID/g
- Biodistribution Muscle (1 h p.i.): 0.15 ± 0.03 % ID/g
- Biodistribution Pancreas (1 h p.i.): 0.33 ± 0.11 % ID/g
- Biodistribution Parotid gland (1 h p.i.): 0.56 ± 0.08 % ID/g
- Biodistribution Spleen (1 h p.i.): 1.04 ± 0.15 % ID/g
- Biodistribution Stomach (1 h p.i.): 1.55 ± 1.67 % ID/g
- Biodistribution Submandibular gland (1 h p.i.): 0.40 ± 0.05 % ID/g
- Biodistribution Tumor (1 h p.i.): 3.40 ± 0.63 % ID/g
- Ratio Tumor-to-blood (1 h p.i.): 3.46 ± 1.62
- Ratio Tumor-to-kidney (1 h p.i.): 0.10 ± 0.03
- Ratio Tumor-to-liver (1 h p.i.): 5.00 ± 2.11
- Ratio Tumor-to-muscle (1 h p.i.): 24.9 ± 10.2
- Ratio Tumor-to-parotid gland (1 h p.i.): 6.20 ± 1.74
- Ratio Tumor-to-submandibular gland (1 h p.i.): 8.74 ± 2.52
- Biodistribution Adrenals (24 h p.i.): 0.17 ± 0.19 % ID/g
- Biodistribution Bone (24 h p.i.): 0.18 ± 0.04 % ID/g
- Biodistribution Heart (24 h p.i.): 0.02 ± 0.00 % ID/g
- Biodistribution Intestine (24 h p.i.): 0.52 ± 0.68 % ID/g
- Biodistribution Kidneys (24 h p.i.): 3.23 ± 0.77 % ID/g
- Biodistribution Liver (24 h p.i.): 0.18 ± 0.04 % ID/g
- Biodistribution Lung (24 h p.i.): 0.05 ± 0.02 % ID/g
- Biodistribution Muscle (24 h p.i.): 0.02 ± 0.01 % ID/g
- Biodistribution Pancreas (24 h p.i.): 0.02 ± 0.00 % ID/g
- Biodistribution Parotid gland (24 h p.i.): 0.06 ± 0.02 % ID/g
- Biodistribution Spleen (24 h p.i.): 0.11 ± 0.03 % ID/g
- Biodistribution Stomach (24 h p.i.): 0.12 ± 0.11 % ID/g
- Biodistribution Submandibular gland (24 h p.i.): 0.04 ± 0.01 % ID/g
- Biodistribution Tumor (24 h p.i.): 0.68 ± 0.16 % ID/g
- Ratio Tumor-to-blood (24 h p.i.): 227 ± 50
- Ratio Tumor-to-kidney (24 h p.i.): 0.22 ± 0.06
- Ratio Tumor-to-liver (24 h p.i.): 3.74 ± 0.50
- Ratio Tumor-to-muscle (24 h p.i.): 55.9 ± 24.3
- Ratio Tumor-to-parotid gland (24 h p.i.): 12.2 ± 1.7
- Ratio Tumor-to-submandibular gland (24 h p.i.): 16.9 ± 2.2
- factor by which tumor-to-submandibular gland and tumor-to-parotid gland ratios are lower than for [177Lu]Lu-1 (24 h p.i.): 8
